Results: patent US20250163029A1, “PYRIDONE OR PYRIMIDONE DERIVATIVE AND APPLICATION THEREOF” (Medshine Discovery Inc., priority 2022, published 2025)
Where a name gives a salt, the structure may show the parent alone.

Experiments:
coronavirus OC43 = assay: Efficacy on suckling mice infected with coronavirus; assay type: in vivo, Suckling mice (C57BL6/J strain); conditions: intraperitoneal, once a day day 0 to day 6
Description: Objective of assay: The in vivo antiviral activity of the compound against coronavirus was evaluated by observing the percentage of weight change and survival rate of the assay animals in a suckling mouse model infected with coronavirus (COV). The mouse infection model is widely used to determine the protective effect of the compound on virus-infected animals to reflect the antiviral activity of the compound.
Suckling mice (C57BL6/J strain) were inoculated with virus (coronavirus OC43) by intranasal drops on day 0, with an inoculation dose of 3500 p.f.u./mouse. From day 0 to day 6, the mice were treated with a vehicle (5% DMSO+40% polyethylene glycol 400+55% water) or 12.5 mpk or 25 mpk of the compound of the present disclosure for 7 consecutive days, once a day, by intraperitoneal injection, for a total of 7 times, with the first administration time being 2 hours before virus inoculation. The animals were continuously observed from day 0 to day 14, and the body weight, health and survival status were recorded.

plasma protein [1] = assay: Plasma protein binding rate (PPB), humans; assay type: in vitro ADME; conditions: Human plasma, 2 μM, 4 hours dialysis
Description: (§1) 597 μL of blank plasma from CD-1 mice, SD rats, beagle dogs, cynomolgus monkeys and humans were weighed, and the working solution of the assay compound or the working solution of warfarin was added, so that the final concentration of the assay compound and warfarin in the plasma sample was 2 μM. The samples were mixed thoroughly. The final concentration of DMSO as an organic phase was 0.5%; 50 μL of the assay compound and warfarin plasma samples were pipetted into a sample receiving plate, and the corresponding volume of blank plasma or buffer was immediately added, so that the final volume of each sample well was 100 μL, and the volume ratio of plasma:dialysis buffer was 1:1, and then the stop solution was added to these samples. The samples were used as the To sample for recovery and stability determination. The assay compound and warfarin plasma samples were added to the dosing end of each dialysis well, and blank dialysis buffer was added to the receiving end corresponding to the dialysis well. Then the dialysis plate was sealed with a gas permeable membrane and placed in a humidified 5% CO2 incubator, and incubated with shaking at 37° C. and 100 rpm for 4 hours. […] After protein precipitation, all samples were analyzed by LC/MS/MS, and the free rate (% Unbound) of the compound was calculated by the following formula: […]

in vivo [2] = assay: in vivo; design: species or system beagle dogs; conditions: beagle, dog
Description: (§2) Objective of assay: The druggability of compounds was evaluated by measuring their pharmacokinetic properties in different animal species.
(§3) Assay Materials: C57BL6/J strain mice, Sprague-Dawley strain rats and beagle dogs.
(§4) The pharmacokinetic characteristics of the compound after intravenous and oral administration were assayed in animals using a standard protocol. In the assay, the candidate compound was prepared into a clear solution (intravenous injection) or a homogeneous suspension (oral administration) and administrated to the animal once. Whole blood samples were collected within 24 hours, and centrifuged at 3200 g for 10 minutes. The supernatant was separated to obtain a plasma sample. The blood concentration was quantitatively analyzed by LC-MS/MS analysis method, and pharmacokinetic parameters such as peak concentration, time to peak, clearance rate, half-life, and area under the drug-time curve were calculated.

plasma protein [3] = assay: Plasma protein binding rate (PPB), cynomolgus monkeys; assay type: in vitro ADME; conditions: Cynomolgus monkey plasma, 2 μM, 4 hours dialysis
Description: as §1

in vivo [4] = assay: in vivo; design: species or system Sprague-Dawley strain rats; conditions: Sprague-Dawley, rat
Description: as §2, §3, §4

[5] = tested on: novel coronavirus βCoV/KOR/KCDC03/2020 strain; assay: In vitro anti-novel coronavirus activity in Vero cells; assay type: cell-based, SARS-CoV-2; conditions: Severe acute respiratory syndrome coronavirus 2, Vero, 24 h

Compound: Cn1cnc(Cc2cn(Cc3cc(F)c(F)cc3F)c(Nc3cc4cn(C)nc4cc3Cl)nc2=O)n1 [Compound 4 hydrochloride]
- Survival rate (coronavirus OC43; 12.5 mpk, Day 1): 100%
- Weight changes (Percent of starting body weight) (coronavirus OC43; 12.5 mpk, Day 1): 5.35 ± 0.58% of starting body weight
- Survival rate (coronavirus OC43; 12.5 mpk, Day 2): 100%
- Weight changes (Percent of starting body weight) (coronavirus OC43; 12.5 mpk, Day 2): 14.57 ± 1.37% of starting body weight
- Survival rate (coronavirus OC43; 12.5 mpk, Day 3): 100%
- Weight changes (Percent of starting body weight) (coronavirus OC43; 12.5 mpk, Day 3): 22.55 ± 1.37% of starting body weight
- Survival rate (coronavirus OC43; 12.5 mpk, Day 4): 100%
- Weight changes (Percent of starting body weight) (coronavirus OC43; 12.5 mpk, Day 4): 30.95 ± 1.19% of starting body weight
- Survival rate (coronavirus OC43; 12.5 mpk, Day 5): 100%
- Weight changes (Percent of starting body weight) (coronavirus OC43; 12.5 mpk, Day 5): 39.15 ± 1.15% of starting body weight
- Survival rate (coronavirus OC43; 12.5 mpk, Day 6): 100%
- Weight changes (Percent of starting body weight) (coronavirus OC43; 12.5 mpk, Day 6): 42.61 ± 1.80% of starting body weight
- Survival rate (coronavirus OC43; 12.5 mpk, Day 7): 100%
- Weight changes (Percent of starting body weight) (coronavirus OC43; 12.5 mpk, Day 7): 49.30 ± 2.16% of starting body weight
- Survival rate (coronavirus OC43; 12.5 mpk, Day 8): 100%
- Weight changes (Percent of starting body weight) (coronavirus OC43; 12.5 mpk, Day 8): 55.56 ± 2.05% of starting body weight
- Survival rate (coronavirus OC43; 12.5 mpk, Day 9): 100%
- Weight changes (Percent of starting body weight) (coronavirus OC43; 12.5 mpk, Day 9): 57.80 ± 4.27% of starting body weight
- Survival rate (coronavirus OC43; 12.5 mpk, Day 10): 100%
- Weight changes (Percent of starting body weight) (coronavirus OC43; 12.5 mpk, Day 10): 60.74 ± 6.34% of starting body weight
- Survival rate (coronavirus OC43; 12.5 mpk, Day 11): 100%
- Weight changes (Percent of starting body weight) (coronavirus OC43; 12.5 mpk, Day 11): 60.39 ± 8.87% of starting body weight
- Survival rate (coronavirus OC43; 12.5 mpk, Day 12): 100%
- Weight changes (Percent of starting body weight) (coronavirus OC43; 12.5 mpk, Day 12): 65.10 ± 10.85% of starting body weight
- Survival rate (coronavirus OC43; 12.5 mpk, Day 13): 100%
- Weight changes (Percent of starting body weight) (coronavirus OC43; 12.5 mpk, Day 13): 76.18 ± 9.69% of starting body weight
- Survival rate (coronavirus OC43; 12.5 mpk, Day 14): 100%
- Weight changes (Percent of starting body weight) (coronavirus OC43; 12.5 mpk, Day 14): 96.72 ± 10.96% of starting body weight
- Survival rate (coronavirus OC43; 25 mpk, Day 1): 100%
- Weight changes (Percent of starting body weight) (coronavirus OC43; 25 mpk, Day 1): 6.45 ± 1.94% of starting body weight
- Survival rate (coronavirus OC43; 25 mpk, Day 2): 100%
- Weight changes (Percent of starting body weight) (coronavirus OC43; 25 mpk, Day 2): 12.35 ± 1.74% of starting body weight
- Survival rate (coronavirus OC43; 25 mpk, Day 3): 100%
- Weight changes (Percent of starting body weight) (coronavirus OC43; 25 mpk, Day 3): 22.61 ± 2.41% of starting body weight
- Survival rate (coronavirus OC43; 25 mpk, Day 4): 100%
- Weight changes (Percent of starting body weight) (coronavirus OC43; 25 mpk, Day 4): 28.78 ± 2.69% of starting body weight
- Survival rate (coronavirus OC43; 25 mpk, Day 5): 100%
- Weight changes (Percent of starting body weight) (coronavirus OC43; 25 mpk, Day 5): 34.72 ± 2.23% of starting body weight
- Survival rate (coronavirus OC43; 25 mpk, Day 6): 100%
- Weight changes (Percent of starting body weight) (coronavirus OC43; 25 mpk, Day 6): 39.95 ± 2.01% of starting body weight
- Survival rate (coronavirus OC43; 25 mpk, Day 7): 100%
- Weight changes (Percent of starting body weight) (coronavirus OC43; 25 mpk, Day 7): 45.35 ± 2.00% of starting body weight
- Survival rate (coronavirus OC43; 25 mpk, Day 8): 100%
- Weight changes (Percent of starting body weight) (coronavirus OC43; 25 mpk, Day 8): 49.97 ± 1.91% of starting body weight
- Survival rate (coronavirus OC43; 25 mpk, Day 9): 100%
- Weight changes (Percent of starting body weight) (coronavirus OC43; 25 mpk, Day 9): 55.69 ± 2.31% of starting body weight
- Survival rate (coronavirus OC43; 25 mpk, Day 10): 100%
- Weight changes (Percent of starting body weight) (coronavirus OC43; 25 mpk, Day 10): 62.00 ± 2.26% of starting body weight
- Survival rate (coronavirus OC43; 25 mpk, Day 11): 100%
- Weight changes (Percent of starting body weight) (coronavirus OC43; 25 mpk, Day 11): 72.13 ± 3.02% of starting body weight
- Survival rate (coronavirus OC43; 25 mpk, Day 12): 100%
- Weight changes (Percent of starting body weight) (coronavirus OC43; 25 mpk, Day 12): 87.49 ± 3.63% of starting body weight
- Survival rate (coronavirus OC43; 25 mpk, Day 13): 100%
- Weight changes (Percent of starting body weight) (coronavirus OC43; 25 mpk, Day 13): 95.42 ± 4.90% of starting body weight
- Survival rate (coronavirus OC43; 25 mpk, Day 14): 100%
- Weight changes (Percent of starting body weight) (coronavirus OC43; 25 mpk, Day 14): 118.37 ± 5.15% of starting body weight
- PPB_Unbound (%) (plasma protein [1]): 24.3%
- Vd (in vivo [2]; iv, 0.1 mg/kg): 2.5 L/kg
- clearance (in vivo [2]; iv, 0.1 mg/kg): 7.2 mL/min/kg
- half-life (in vivo [2]; iv, 0.1 mg/kg): 6.2 h
- AUC (in vivo [2]; iv, 0.1 mg/kg, AUC): 0.504 µM·h
- AUC (in vivo [2]; iv, 0.1 mg/kg, AUCfree): 0.12 µM·h
- Cmax (in vivo [2]; po, 0.5 mg/kg): 270 nM
- Tmax (in vivo [2]; po, 0.5 mg/kg): 3 h
- bioavailability (in vivo [2]; po, 0.5 mg/kg): 121%
- half-life (in vivo [2]; po, 0.5 mg/kg): 9.5 h
- AUC (in vivo [2]; po, 0.5 mg/kg, AUC): 3.1 µM·h
- AUC (in vivo [2]; po, 0.5 mg/kg, AUCfree): 0.74 µM·h
- PPB_Unbound (%) (plasma protein [3]): 18.8%
- Vd (in vivo [4]; iv, 0.25 mg/kg): 0.62 L/kg
- clearance (in vivo [4]; iv, 0.25 mg/kg): 4.1 mL/min/kg
- half-life (in vivo [4]; iv, 0.25 mg/kg): 2.2 h
- AUC (in vivo [4]; iv, 0.25 mg/kg, AUC): 2.4 µM·h
- AUC (in vivo [4]; iv, 0.25 mg/kg, AUCfree): 0.11 µM·h
- Cmax (in vivo [4]; po, 0.5 mg/kg): 530 nM
- Tmax (in vivo [4]; po, 0.5 mg/kg): 2 h
- bioavailability (in vivo [4]; po, 0.5 mg/kg): 103%
- half-life (in vivo [4]; po, 0.5 mg/kg): 3.4 h
- AUC (in vivo [4]; po, 0.5 mg/kg, AUC): 4.8 µM·h
- AUC (in vivo [4]; po, 0.5 mg/kg, AUCfree): 0.22 µM·h
- EC50 [5]: 52 nM
